Test results: patent US4192896A, “Method of using dialkylphenols in the treatment of mycoplasma diseases” (priority 1979, dated 1980)

What was measured:
M. pneumoniae [1] = assay: Protection of tracheal explants against the M. pneumoniae infective process (overall, in words); format: cell-based
Method: (§1) Adult golden hamsters (approximately 140 g. male and female) were used as the tissue source. Animals appearing to be disease-free were selected. Tracheas were removed aseptically and sliced into rings. The rings were rinsed and then transfered into sterile Petri dishes containing a shallow layer of minimal essential medium (MEM, with glutamine, NaHCO3, 10% horse serum and 500 units of penicillin G/ml). These organ cultures were incubated for 24 hours at 36° C. in 5% carbon dioxide and then scored for "relative activity" (RA), a measure of explant viability. "Relative Activity" (0 to 300) is the product of the percentage of the epithelial layer which is intact (0 to 100) and the relative vigor of ciliary beating (0 to 3).
(§2) The trachea rings were infected with M. pneumonia, strain PI 1428 (originally obtained from Dr. Robert Chanock, National Institutes of Health, Bethesda, Md.) which was used in the 10th to 12th passage and was grown on G-199 medium. Tracheal explants were infected with logarithmically growing cells using methods described by Gabridge, et al. Except where otherwise noted, groups of from 3 to 6 rings were preincubated for one hour in MEM with or without an appropriate amount of 2,4-dimethylphenol prior to the addition of mycoplasmas. Following exposure to M. pneumoniae for two hours, the rings were rinsed twice in phosphate buffered saline and then placed in a sterile Petri dish containing MEM and, where indicated, the required amount of 2,4-dimethylphenol or 2,4-DMP as used herein. Cultures were incubated at 36° in 5% carbon dioxide and scored daily for RA.
Time Course: In the studies reported thus far, tracheal explants were pretreated with 2,4-DMP for one hour before exposure to M. pneumoniae. Some insight into the nature, that is, the site or mode of action, of this protective phenomenon may be gained by altering the time at which 2,4-DMP is added to the culture media.

M. pneumoniae [2] = assay: Surface morphology of tracheal rings exposed to M. pneumoniae; format: cell-based; details: at least 10^-9 M
Method: as §2
Infection Studies: M. pneumoniae attaches to the surface (as used herein the surface refers to in luminal epithelial lining) of the tracheal tissue within an hour or two following exposure. Decreases in the vigor of ciliary activity and loss of epithelial cells are evident within 24 to 48 hours post-infection. In most cases, little or no ciliary activity remains by the sixth or seventh day.

M. pneumoniae [3] = assay: Growth of logarithmically growing cultures of M. pneumoniae in liquid culture with 2,4-DMP (CFU/ml); format: cell-based, Mycoplasma pneumoniae, strain PI 1428
[4] = tested on: uninfected hamster tracheal explants; assay: Relative activity (explant viability: epithelial integrity x ciliary vigor) of uninfected hamster tracheal explants exposed to 2,4-DMP (toxicity); format: cell-based, golden hamster; details: for Relative activity following days of incubation with 2,4-DMP: uninfected explants, scale 0 to 300
Method: as §1
Before undertaking further studies the determination of the toxicity of 2,4-DMP toward hamster tracheal explants and Mycoplasma pneumoniae is necessary.

Cc1ccc(O)c(C)c1 [2,4-DMP, 2,4-dimethylphenol]
protective effects on delayed addition (M. pneumoniae [1]; 2,4-DMP withheld until attachment is essentially complete): significantly reduced or abolished completely
alteration of the infectious process (M. pneumoniae [1]; concentrations less than or equal to 10^-10 M): failed to alter the infectious process
inhibiting or altering the course of the infective process, relative to the other dimethylphenol isomers (M. pneumoniae [1]; conditions of these studies and at the concentrations tested): more effective than any of the other isomers
effect on the course of infection of explants exposed to M. pneumoniae (M. pneumoniae [1]; very low concentrations in the culture media): dramatically alters the usual course of events
surface morphology of rings exposed to M. pneumoniae compared with uninfected controls (M. pneumoniae [2]): indistinguishable from uninfected controls
CFU/ml following days of culture (M. pneumoniae [3]; 10^-3 moles/liter, day 0): 2 × 10^4 CFU/ml
CFU/ml following days of culture (M. pneumoniae [3]; 10^-3 moles/liter, day 1): 5 × 10^4 CFU/ml
CFU/ml following days of culture (M. pneumoniae [3]; 10^-3 moles/liter, day 2): 6.3 × 10^4 CFU/ml
CFU/ml following days of culture (M. pneumoniae [3]; 10^-3 moles/liter, day 3): 6.5 × 10^4 CFU/ml
CFU/ml following days of culture (M. pneumoniae [3]; 10^-3 moles/liter, day 4): 6.7 × 10^4 CFU/ml
CFU/ml following days of culture (M. pneumoniae [3]; 10^-3 moles/liter, day 5): 4.1 × 10^4 CFU/ml
CFU/ml following days of culture (M. pneumoniae [3]; 10^-3 moles/liter, day 6): 3.3 × 10^4 CFU/ml
CFU/ml following days of culture (M. pneumoniae [3]; 10^-3 moles/liter, day 7): 1.5 × 10^4 CFU/ml
CFU/ml following days of culture (M. pneumoniae [3]; 10^-5 moles/liter, day 0): 2 × 10^4 CFU/ml
CFU/ml following days of culture (M. pneumoniae [3]; 10^-5 moles/liter, day 1): 1.2 × 10^5 CFU/ml
CFU/ml following days of culture (M. pneumoniae [3]; 10^-5 moles/liter, day 2): 7.5 × 10^6 CFU/ml
CFU/ml following days of culture (M. pneumoniae [3]; 10^-5 moles/liter, day 3): 2.5 × 10^7 CFU/ml
CFU/ml following days of culture (M. pneumoniae [3]; 10^-5 moles/liter, day 4): 6.0 × 10^7 CFU/ml
CFU/ml following days of culture (M. pneumoniae [3]; 10^-5 moles/liter, day 6): 1.5 × 10^7 CFU/ml
CFU/ml following days of culture (M. pneumoniae [3]; 10^-5 moles/liter, day 7): 4.3 × 10^6 CFU/ml
CFU/ml following days of culture (M. pneumoniae [3]; 10^-8 moles/liter, day 0): 2 × 10^4 CFU/ml
CFU/ml following days of culture (M. pneumoniae [3]; 10^-8 moles/liter, day 1): 1.5 × 10^5 CFU/ml
CFU/ml following days of culture (M. pneumoniae [3]; 10^-8 moles/liter, day 2): 7.2 × 10^6 CFU/ml
CFU/ml following days of culture (M. pneumoniae [3]; 10^-8 moles/liter, day 3): 2.4 × 10^7 CFU/ml
CFU/ml following days of culture (M. pneumoniae [3]; 10^-8 moles/liter, day 4): 6.3 × 10^7 CFU/ml
CFU/ml following days of culture (M. pneumoniae [3]; 10^-8 moles/liter, day 5): 5.2 × 10^7 CFU/ml
CFU/ml following days of culture (M. pneumoniae [3]; 10^-8 moles/liter, day 6): 1.1 × 10^7 CFU/ml
CFU/ml following days of culture (M. pneumoniae [3]; 10^-8 moles/liter, day 7): 4.2 × 10^6 CFU/ml
effect on mycoplasmal growth (M. pneumoniae [3]; higher concentrations (10^-3 M)): inhibit mycoplasmal growth
effect on growth of the organism (M. pneumoniae [3]; lower amounts (10^-5 M)): little or no effect on the growth of the organism
reductions in RAs of uninfected explants ([4]; 10^-3 and 10^-4 M): Significant reductions in RAs
overt cytotoxic effects in uninfected rings ([4]; 10^-5 M or less): no overt cytotoxic effects
Relative activity following days of incubation with 2,4-DMP ([4]; 10^-3 moles/liter, day 1): 210 ± 19
Relative activity following days of incubation with 2,4-DMP ([4]; 10^-3 moles/liter, day 2): 155 ± 12
Relative activity following days of incubation with 2,4-DMP ([4]; 10^-3 moles/liter, day 3): 105 ± 16
Relative activity following days of incubation with 2,4-DMP ([4]; 10^-3 moles/liter, day 4): 75 ± 16
Relative activity following days of incubation with 2,4-DMP ([4]; 10^-3 moles/liter, day 5): 55 ± 12
Relative activity following days of incubation with 2,4-DMP ([4]; 10^-3 moles/liter, day 6): 50 ± 16
Relative activity following days of incubation with 2,4-DMP ([4]; 10^-3 moles/liter, day 7): 50 ±16
Relative activity following days of incubation with 2,4-DMP ([4]; 10^-4 moles/liter, day 1): 255 ± 16
Relative activity following days of incubation with 2,4-DMP ([4]; 10^-4 moles/liter, day 2): 240 ± 33
Relative activity following days of incubation with 2,4-DMP ([4]; 10^-4 moles/liter, day 3): 200 ± 49
Relative activity following days of incubation with 2,4-DMP ([4]; 10^-4 moles/liter, day 4): 160 ± 45
Relative activity following days of incubation with 2,4-DMP ([4]; 10^-4 moles/liter, day 5): 150 ± 27
Relative activity following days of incubation with 2,4-DMP ([4]; 10^-4 moles/liter, day 6): 140 ± 24
Relative activity following days of incubation with 2,4-DMP ([4]; 10^-4 moles/liter, day 7): 135 ± 16
Relative activity following days of incubation with 2,4-DMP ([4]; 10^-5 moles/liter, day 1): 265 ± 12
Relative activity following days of incubation with 2,4-DMP ([4]; 10^-5 moles/liter, day 2): 270 ± 0
